Data on four compounds can be found in US20230120597A1, “CO-AGONISTS AT GLP-1 AND GIP RECEPTORS SUITABLE FOR ORAL DELIVERY” (Novo Nordisk A/S, priority 2020, published 2023).

For one series, the target named is T1, human GLP-1 receptor (Homo sapiens, UniProt P43220).
T1 construct: expressed in transfected cells; host or cells: BHK (parent line BHKTS13), clone BHK CRE luc2P hGLP-1R
Nature of the series: In vitro functional potency, CRE luciferase reporter gene assay, whole BHK cells expressing hGLP-1R. Particulars: BHK CRE luc2P hGLP-1R cells. The class given is cell-based. The protocol: (§1) The in vitro functional potency is the measure of target receptor activation in a whole cell assay.
(§2) In vitro functional potency was determined by measuring the response of the target receptor in a reporter gene assay in individual cell lines. […] When the respective receptor is activated, it results in the production of cAMP, which in turn results in expression of the luciferase protein. When assay incubation is completed, luciferase substrate (luciferin) is added resulting in the enzymatic conversion of luciferin to oxyluciferin and producing bioluminescence. The luminescence is measured as the readout for the assay.
(§3) The cells lines used in these assays were BHK cells with BHKTS13 as a parent cell line. The cell lines were derived from a clone containing the CRE luciferase element and were established by further transfection with the respective human receptor to obtain the relevant cell line: BHK CRE luc2P hGLP-1R or BHK CRE luc2P hGIPR. The cells were cultured at 37° C. with 5% CO2 in Cell Culture Medium. They were aliquoted and stored in liquid nitrogen. The cells were kept in continuous culture and were seeded out the day before each assay.
(§4) GLP-1R Cell Culture Medium consisted of DMEM medium with 10% FBS, 500 μg/mL G418, and 300 μg/mL hygromycin. GIPR Cell Culture Medium consisted of DMEM medium with 10% FBS, 400 μg/mL G418, and 300 μg/mL hygromycin. Assay Buffer consisted of DMEM w/o phenol red, 10 mM Hepes, 1× Glutamax. 1% ovalbumin, and 0.1% Pluronic F-68 with the addition of HSA at twice the final assay concentration.
(§5) Procedure • 1) Cells were plated at 5000 cells/well and incubated overnight in the assay plate. • 2) Cells were washed once in DPBS. • 3) Stocks of the test compounds and reference compounds in concentrations ranging from […] were diluted 1:150 in Assay Buffer. Compounds were then diluted 1:10 in column 1 of a 96 deep well dilution plate and then carried across the row creating a 3.5 fold, 12 point dilution curve. • 4) Assay Buffer (50 μl aliquot) with or without HSA was added to each well in the assay plate. • 5) A 50 μl aliquot of compound or blank was transferred from the dilution plate to the assay plate containing the Assay Buffer with or without HSA. • 6) The assay plate was incubated for 3 h in a 5% CO2 incubator at 37° C. • 7) The cells were washed once with DPBS. • 8) A 100 μl aliquot of DPBS was added to each well of the assay plate. • 9) A 100 μl aliquot of steadylite plus reagent (light sensitive) was added to each well of the assay plate. • 10) Each assay plate was covered with aluminum foil to protect it from light and shaken at 250 RPM for 30 min at room temperature. • 11) Each assay plate was read in a microtiter plate reader.
(§6) The data from the microtiter plate reader was first regressed in an Excel in order to calculate the x-axis, log scale concentrations based on the individual test compound's stock concentration and the dilutions of the assay. […] The software performs a non-linear regression (log(agonist) vs response). A minimum of two replicates was measured for each sample. The reported values are averages of the replicates.

The target of a further series is T2, human GIP receptor (Homo sapiens, UniProt P48546).
T2 construct: expressed in transfected cells; host or cells: BHK (parent line BHKTS13), clone BHK CRE luc2P hGIPR
T2 sequence (P48546 22-466): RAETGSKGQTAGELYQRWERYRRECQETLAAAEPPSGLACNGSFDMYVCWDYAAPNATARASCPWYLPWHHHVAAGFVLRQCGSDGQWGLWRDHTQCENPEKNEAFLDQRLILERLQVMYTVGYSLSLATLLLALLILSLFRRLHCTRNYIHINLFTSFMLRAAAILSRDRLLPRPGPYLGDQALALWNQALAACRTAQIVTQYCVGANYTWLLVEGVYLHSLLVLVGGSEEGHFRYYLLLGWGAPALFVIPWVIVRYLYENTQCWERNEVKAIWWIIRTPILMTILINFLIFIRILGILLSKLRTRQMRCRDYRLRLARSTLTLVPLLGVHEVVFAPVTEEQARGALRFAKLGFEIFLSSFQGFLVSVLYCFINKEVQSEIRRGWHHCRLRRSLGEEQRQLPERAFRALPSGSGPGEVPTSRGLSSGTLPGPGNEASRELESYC
The series is described as follows: In vitro functional potency, CRE luciferase reporter gene assay, whole BHK cells expressing hGIPR. The class given is cell-based. The settings on record: BHK CRE luc2P hGIPR cells. As to the method: as §1, §2, §3, §4, §5, §6

Series [1] is described as follows: Pharmacokinetic study in dogs, oral dosing of tablet compositions with SNAC. The class given is in vivo, Beagle dogs. Particulars: dog, in vivo, po. The procedure, abridged:
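Male beagle dogs (9-17 kg), fasted, received a single oral tablet with 100-300 mg SNAC and 3-4 mg test substance, groups of 6-8.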

[2] abbreviates: 0% HSA, read-out: hGLP-1R, CRE Luc 0% HSA EC50.
The mark [3] stands for this setting: hGLP-1R, CRE Luc 1% HSA EC50, 1% HSA.
[4] abbreviates: 0% HSA, read-out: hGIPR, CRE Luc 0% HSA EC50.
[5] abbreviates: hGIPR, CRE Luc 1% HSA EC50, 1% HSA.

pEC50: −log10 of the molar value. Read-outs that look alike come from different tables or passages of the source. Starred links: 1 amine or outer side, 2 acyl side, 3 side chain; linkers in the order of their positions; H or OH if unused. Non-standard residues stand in square brackets, D forms with d. Residues, ends and D or L forms follow the SMILES beside them. Groups on a side chain read outwards from the residue. *: point of attachment. C18 diacid = O=C(O)CCCCCCCCCCCCCCCCC(=O)*; γGlu = O=C(O)[C@H](CCC(=O)[*:2])N[*:1]; εLys = N[C@@H](CCCCN[*:1])C(=O)[*:2]; Aib = CC(C)(N)C(=O)O

T1 sequence (P43220 24-463): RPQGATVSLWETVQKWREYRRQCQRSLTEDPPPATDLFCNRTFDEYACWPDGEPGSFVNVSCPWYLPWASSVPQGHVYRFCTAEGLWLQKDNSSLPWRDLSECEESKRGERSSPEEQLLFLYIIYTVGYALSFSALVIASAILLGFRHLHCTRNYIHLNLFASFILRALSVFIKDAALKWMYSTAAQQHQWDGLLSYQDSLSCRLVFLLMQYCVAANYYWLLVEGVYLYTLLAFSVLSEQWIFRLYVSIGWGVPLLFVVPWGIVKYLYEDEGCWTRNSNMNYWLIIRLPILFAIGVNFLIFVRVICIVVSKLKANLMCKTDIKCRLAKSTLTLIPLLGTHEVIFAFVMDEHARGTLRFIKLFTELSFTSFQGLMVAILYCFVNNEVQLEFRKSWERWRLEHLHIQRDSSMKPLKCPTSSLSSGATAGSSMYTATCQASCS

As to `CC[C@H](C)[C@H](NC(=O)[C@H](Cc1ccccc1)NC(=O)[C@H](CCC(=O)O)NC(=O)[C@H](CCCNC(=N)N)NC(=O)[C@H](C)NC(=O)[C@H](C)NC(=O)[C@H](CCC(N)=O)NC(=O)[C@H](CCCCNC(=O)[C@@H](N)CCCCNC(=O)[C@@H](N)CCCCNC(=O)CC[C@H](NC(=O)CCCCCCCCCCCCCCCCC(=O)O)C(=O)O)NC(=O)[C@H](CCC(=O)O)NC(=O)[C@H](CC(C)C)NC(=O)[C@H](Cc1ccc(O)cc1)NC(=O)[C@@H](NC(=O)[C@H](CO)NC(=O)[C@H](Cc1ccc(O)cc1)NC(=O)[C@H](CC(=O)O)NC(=O)[C@H](CO)NC(=O)[C@@H](NC(=O)[C@H](Cc1ccccc1)NC(=O)[C@@H](NC(=O)CNC(=O)[C@H](CCC(=O)O)NC(=O)C(C)(C)NC(=O)[C@@H](N)Cc1ccc(O)cc1)[C@@H](C)O)[C@@H](C)O)[C@@H](C)CC)C(=O)N[C@@H](CC(N)=O)C(=O)N[C@@H](Cc1c[nH]c2ccccc12)C(=O)N[C@@H](CC(C)C)C(=O)N[C@@H](CC(C)C)C(=O)N[C@@H](C)C(=O)NCC(=O)NCC(=O)N1CCC[C@H]1C(=O)N[C@@H](CO)C(=O)N[C@@H](CO)C(=O)NCC(=O)N[C@@H](C)C(=O)N1CCC[C@H]1C(=O)N1CCC[C@H]1C(=O)N1CCC[C@H]1C(=O)N[C@@H](CO)C(N)=O` [Compound No. 8] (H-Y[Aib]EGTFTSDYSIYLEK([εLys-εLys-γGlu-C18 diacid])QAAREFINWLLAGGPSSGAPPPS-NH2), the pEC50 was 11.64 on human GLP-1 receptor (setting [2]), 10.09 on human GLP-1 receptor (setting [3]), 11.17 on human GIP receptor (setting [4]) and 9.72 at human GIP receptor (setting [5]).

Consider `CC[C@H](C)[C@H](NC(=O)[C@H](Cc1ccccc1)NC(=O)[C@H](CCC(=O)O)NC(=O)[C@H](CCCNC(=N)N)NC(=O)[C@H](C)NC(=O)[C@H](C)NC(=O)[C@H](CCC(N)=O)NC(=O)[C@H](CCCCNC(=O)[C@@H](N)CCCCNC(=O)[C@@H](N)CCCCNC(=O)CC[C@H](NC(=O)CCCCCCCCCCCCCCCCC(=O)O)C(=O)O)NC(=O)[C@H](CCC(=O)O)NC(=O)[C@H](CC(C)C)NC(=O)[C@H](Cc1ccc(O)cc1)NC(=O)[C@@H](NC(=O)[C@H](CO)NC(=O)[C@H](Cc1ccc(O)cc1)NC(=O)[C@H](CC(=O)O)NC(=O)[C@H](CO)NC(=O)[C@@H](NC(=O)[C@H](Cc1ccccc1)NC(=O)[C@@H](NC(=O)CNC(=O)[C@H](CCC(=O)O)NC(=O)C(C)(C)NC(=O)[C@@H](N)Cc1ccc(O)cc1)[C@@H](C)O)[C@@H](C)O)[C@@H](C)CC)C(=O)N[C@@H](CCC(=O)O)C(=O)N[C@@H](Cc1c[nH]c2ccccc12)C(=O)N[C@@H](CC(C)C)C(=O)N[C@@H](CC(C)C)C(=O)N[C@@H](C)C(=O)NCC(=O)NCC(=O)N1CCC[C@H]1C(=O)N[C@@H](CO)C(=O)N[C@@H](CO)C(=O)NCC(=O)N[C@@H](C)C(=O)N1CCC[C@H]1C(=O)N1CCC[C@H]1C(=O)N1CCC[C@H]1C(=O)N[C@@H](CO)C(=O)O` [Compound No. 9] (H-Y[Aib]EGTFTSDYSIYLEK([εLys-εLys-γGlu-C18 diacid])QAAREFIEWLLAGGPSSGAPPPS-OH), for which the pEC50 on human GLP-1 receptor (setting [2]) is 11.42; at human GLP-1 receptor (setting [3]), 9.55; on human GIP receptor (setting [4]) it was […]; on human GIP receptor (setting [5]), […]. This compound also displayed an AUC/Dose in series [1] of 12.1 kg·h/L. Further, in series [1] (male, beagle, Tmax), the Tmax turned out to be 2 h. In series [1] (male, beagle, t1/2), this compound gave a half-life of 3000 min.

On to `CC[C@H](C)[C@H](NC(=O)[C@H](Cc1ccccc1)NC(=O)[C@H](CCC(=O)O)NC(=O)[C@H](CCCNC(=N)N)NC(=O)[C@H](C)NC(=O)[C@H](C)NC(=O)[C@H](CCC(N)=O)NC(=O)[C@H](CCCCNC(=O)[C@@H](N)CCCCNC(=O)[C@@H](N)CCCCNC(=O)CC[C@H](NC(=O)CCCCCCCCCCCCCCCCC(=O)O)C(=O)O)NC(=O)[C@H](CCC(=O)O)NC(=O)[C@H](CC(C)C)NC(=O)[C@H](Cc1ccc(O)cc1)NC(=O)[C@@H](NC(=O)[C@H](CO)NC(=O)[C@H](Cc1ccc(O)cc1)NC(=O)[C@H](CC(=O)O)NC(=O)[C@H](CO)NC(=O)[C@@H](NC(=O)[C@H](Cc1ccccc1)NC(=O)[C@@H](NC(=O)CNC(=O)[C@H](CCC(=O)O)NC(=O)C(C)(C)NC(=O)[C@@H](N)Cc1ccc(O)cc1)[C@@H](C)O)[C@@H](C)O)[C@@H](C)CC)C(=O)N[C@@H](CCC(=O)O)C(=O)N[C@@H](Cc1c[nH]c2ccccc12)C(=O)N[C@@H](CC(C)C)C(=O)N[C@@H](CC(C)C)C(=O)N[C@@H](CCCNC(=N)N)C(=O)NCC(=O)NCC(=O)N1CCC[C@H]1C(=O)N[C@@H](CO)C(=O)N[C@@H](CO)C(=O)NCC(=O)N[C@@H](C)C(=O)N1CCC[C@H]1C(=O)N1CCC[C@H]1C(=O)N1CCC[C@H]1C(=O)N[C@@H](CO)C(=O)O` [Compound No. 12] (H-Y[Aib]EGTFTSDYSIYLEK([εLys-εLys-γGlu-C18 diacid])QAAREFIEWLLRGGPSSGAPPPS-OH; N-terminus assumed), for which the pEC50 at human GLP-1 receptor (setting [2]) was 11.40; at human GLP-1 receptor (setting [3]), 10.26; on human GIP receptor (setting [4]), 11.05; on human GIP receptor (setting [5]), 10.15.

Take `CC[C@H](C)[C@H](NC(=O)[C@H](CO)NC(=O)[C@H](Cc1ccc(O)cc1)NC(=O)[C@H](CC(=O)O)NC(=O)[C@H](CO)NC(=O)[C@@H](NC(=O)[C@H](Cc1ccccc1)NC(=O)[C@@H](NC(=O)CNC(=O)[C@H](CCC(=O)O)NC(=O)C(C)(C)NC(=O)[C@@H](N)Cc1ccc(O)cc1)[C@@H](C)O)[C@@H](C)O)C(=O)N[C@@H](C)C(=O)N[C@@H](CC(C)C)C(=O)N[C@@H](CCC(=O)O)C(=O)N[C@@H](CCCCNC(=O)[C@@H](N)CCCCNC(=O)[C@@H](N)CCCCNC(=O)CC[C@H](NC(=O)CCCCCCCCCCCCCCCCC(=O)O)C(=O)O)C(=O)N[C@@H](CCC(N)=O)C(=O)N[C@@H](C)C(=O)N[C@@H](C)C(=O)N[C@@H](CCCNC(=N)N)C(=O)N[C@@H](CCC(=O)O)C(=O)N[C@@H](Cc1ccccc1)C(=O)N[C@H](C(=O)N[C@@H](CC(N)=O)C(=O)N[C@@H](Cc1c[nH]c2ccccc12)C(=O)N[C@@H](CC(C)C)C(=O)N[C@@H](CC(C)C)C(=O)N[C@@H](C)C(=O)NCC(=O)NCC(=O)N1CCC[C@H]1C(=O)N[C@@H](CO)C(=O)N[C@@H](CO)C(=O)NCC(=O)N[C@@H](C)C(=O)N1CCC[C@H]1C(=O)N1CCC[C@H]1C(=O)N1CCC[C@H]1C(=O)N[C@@H](CO)C(=O)O)[C@@H](C)CC` [Compound No. 14] (H-Y[Aib]EGTFTSDYSIALEK([εLys-εLys-γGlu-C18 diacid])QAAREFINWLLAGGPSSGAPPPS-OH): the pEC50 on human GLP-1 receptor (setting [2]) is 11.27; at human GLP-1 receptor (setting [3]), 9.51; at human GIP receptor (setting [4]), 10.94; at human GIP receptor (setting [5]) it was 9.24.
